From patent EP2914280B1, “SOMATOSTATIN-DOPAMINE CHIMERIC ANALOGS” (IPSEN PHARMA S.A.S., priority 2012, dated 2014)
Like-named read-outs stand apart in the source and are kept apart here.

What was measured:
hSSTR1 = target: T1, hSSTR1 (Homo sapiens, UniProt P30872); assay: Somatostatin receptor radioligand binding assay (hSSTR1)
T1 construct: expressed in transfected cells; host or cells: CHO-K1 (ATCC), pcDNA3.1, G418-selected clonal line; membranes
Experimental: (§5) The affinities of a test compound for the human somatostatin receptors were determined by radioligand binding assays in CHO-K1 cells stably transfected with each of the human somatostatin receptor subtypes, hSSTR1-5. […] Clonal cell lines stably expressing each of the somatostatin receptors were obtained by transfection into CHO-K1 cells (ATCC) and subsequently selected with culture media containing 0.8 mg/mL of G418 (Life Technologies).
(§6) Membranes for in vitro receptor binding assays were obtained by the following procedures. […] The supernatant containing the plasma membranes was centrifuged at 100,000 x g for 30 minutes and the pellet was resuspended in buffer containing 20 mM glycine-glycine, 1 mM MgCl2, 250 mM sucrose, pH 7.2, for storage at -80°C.
(§7) For the SSTR1, 2 and 5 assays, membranes and various concentrations of test compounds were incubated in 96-well plates for 60 minutes at 25°C with 0.05 nM [^125I-Tyr^11]-SRIF-14 (for hSSTR1; PerkinElmer Life Science), 0.05 nM [^125I-Tyr]-seglitide (for hSSTR2; PerkinElmer Life Science) or 0.05 nM [^125I-Tyr]-[DPhe-cyclo(Cys-Tyr-DTrp-Lys-Val-Cys)-Thr-NH2] (for hSSTR5; PerkinElmer Life Science) in 50 mM HEPES, 0.2% BSA, 0.1 mM MgCl2, pH 7.5.

hSSTR2 [1] = target: T2, hSSTR2 (Homo sapiens, UniProt P30874); assay: Somatostatin receptor radioligand binding assay (hSSTR2);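 also: radioligand displacement on membranes of CHO-K1 cells stably transfected with human SSTR2, specific binding taken as total minus binding left with 1000 nM SRIF-14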
T2 construct: host or cells: 'Cells expressing hSSTR2'
T2 sequence (P30874 whole entry): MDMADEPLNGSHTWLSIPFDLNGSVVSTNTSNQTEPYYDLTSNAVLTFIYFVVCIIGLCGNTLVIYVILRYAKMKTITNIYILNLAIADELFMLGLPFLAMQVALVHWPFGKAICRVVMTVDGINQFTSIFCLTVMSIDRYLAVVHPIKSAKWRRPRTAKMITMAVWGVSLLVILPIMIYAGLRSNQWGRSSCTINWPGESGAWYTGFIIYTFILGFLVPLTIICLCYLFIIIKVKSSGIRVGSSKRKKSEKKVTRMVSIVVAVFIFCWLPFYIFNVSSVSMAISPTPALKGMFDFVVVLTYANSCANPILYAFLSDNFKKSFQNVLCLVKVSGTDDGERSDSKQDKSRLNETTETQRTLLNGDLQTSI
Experimental: as §5, §6, §7

hSSTR3 = target: T3, hSSTR3 (Homo sapiens, UniProt P32745); assay: Somatostatin receptor radioligand binding assay (hSSTR3); conditions: CHO-K1 cell membranes; 0.05 nM [125I-Tyr11]-SRIF-14; 60 minutes at 25°C; read-out: hSSTR3 Ki (nM) ± SEM
T3 construct: expressed in transfected cells; host or cells: CHO-K1 (ATCC), pcDNA3.1, G418-selected clonal line; membranes
T3 sequence (P32745 whole entry): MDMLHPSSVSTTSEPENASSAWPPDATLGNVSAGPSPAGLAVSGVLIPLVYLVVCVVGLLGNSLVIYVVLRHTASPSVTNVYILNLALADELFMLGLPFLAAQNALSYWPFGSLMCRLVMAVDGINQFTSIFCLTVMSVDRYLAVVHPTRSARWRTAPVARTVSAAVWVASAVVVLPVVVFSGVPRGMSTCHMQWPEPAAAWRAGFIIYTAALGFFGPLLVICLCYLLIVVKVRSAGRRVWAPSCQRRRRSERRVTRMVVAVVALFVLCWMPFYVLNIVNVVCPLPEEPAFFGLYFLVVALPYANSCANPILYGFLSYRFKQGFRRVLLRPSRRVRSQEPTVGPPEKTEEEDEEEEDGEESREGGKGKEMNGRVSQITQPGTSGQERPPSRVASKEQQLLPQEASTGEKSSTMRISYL
Experimental: (§1) The affinities of a test compound for the human somatostatin receptors were determined by radioligand binding assays in CHO-K1 cells stably transfected with each of the human somatostatin receptor subtypes, hSSTR1-5. The cDNA coding sequences of hSSTR1 (GenBank accession No. NM_001049.1), hSSTR2 (GenBank accession No. XM_012697.1), hSSTR3 (GenBank accession No. XM_009963.1), hSSTR4 (GenBank accession No. NM_001052.1), and hSSTR5 (GenBank accession No. XM_012565.1) were subcloned into the mammalian expression vector pcDNA3.1 (Life Technologies). Clonal cell lines stably expressing each of the somatostatin receptors were obtained by transfection into CHO-K1 cells (ATCC) and subsequently selected with culture media containing 0.8 mg/mL of G418 (Life Technologies).
(§2) Membranes for in vitro receptor binding assays were obtained by the following procedures. CHO-K1 cells expressing one of the somatostatin receptors were homogenized in ice-cold buffer with 10 mM Tris-HCl, 5 mM EDTA, 3 mM EGTA, 1 mM phenylmethylsuphonyl fluoride, pH 7.6, using Polytron PT10-35GT (Kinematica) at 18,000 rpm for 30 seconds and centrifuged at 500 x g for 10 minutes. The supernatant containing the plasma membranes was centrifuged at 100,000 x g for 30 minutes and the pellet was resuspended in buffer containing 20 mM glycine-glycine, 1 mM MgCl2, 250 mM sucrose, pH 7.2, for storage at -80°C.
(§3) For the hSSTR3 and 4 assays, membranes and various concentrations of test compounds were incubated in 96-well plates for 60 minutes at 25°C with 0.05 nM [^125I-Tyr^11]-SRIF-14 (PerkinElmer Life Science) in 50 mM HEPES, 0.2% BSA, 5 mM MgCl2, 200 KIU/mL trasylol, 0.02 mg/mL bacitracin, and 0.02 mg/mL phenylmethylsuphonyl fluoride, pH 7.5.
(§4) The incubations were terminated by rapid filtration through GF/C glass microfiber filter plates (pre-wet with 0.3% polyethyleneimine and 0.1 % BSA) using a 96-well cell harvester (Brandel). Plates were washed six times with 1 mL/well aliquots of ice-cold buffer containing 50 mM Tris buffer, pH 7.7. Specific binding was defined as the total radioligand bound minus the bound in the presence of 1000 nM SRIF-14.

hSSTR4 = target: T4, hSSTR4 (Homo sapiens, UniProt P31391); assay: Somatostatin receptor radioligand binding assay (hSSTR4); conditions: CHO-K1 cell membranes; 0.05 nM [125I-Tyr11]-SRIF-14; 60 minutes at 25°C; read-out: hSSTR4 Ki (nM) ± SEM
T4 construct: expressed in transfected cells; host or cells: CHO-K1 (ATCC), pcDNA3.1, G418-selected clonal line; membranes
T4 sequence (P31391 whole entry): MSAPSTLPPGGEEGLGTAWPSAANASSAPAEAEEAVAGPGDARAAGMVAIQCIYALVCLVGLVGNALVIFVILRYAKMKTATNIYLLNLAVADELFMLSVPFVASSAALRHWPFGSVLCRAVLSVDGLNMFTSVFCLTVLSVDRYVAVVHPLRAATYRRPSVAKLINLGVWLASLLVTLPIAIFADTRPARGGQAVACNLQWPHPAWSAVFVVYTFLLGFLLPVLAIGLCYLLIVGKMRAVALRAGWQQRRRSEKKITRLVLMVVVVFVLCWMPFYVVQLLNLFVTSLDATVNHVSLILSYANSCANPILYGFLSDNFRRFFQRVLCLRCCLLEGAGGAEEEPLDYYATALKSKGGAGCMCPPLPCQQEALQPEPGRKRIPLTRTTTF
Experimental: as §1, §2, §3, §4

hSSTR5 = target: T5, hSSTR5 (Homo sapiens, UniProt P35346); assay: Somatostatin receptor radioligand binding assay (hSSTR5); conditions: CHO-K1 cell membranes; 0.05 nM [125I-Tyr]-[DPhe-cyclo(Cys-Tyr-DTrp-Lys-Val-Cys)-Thr-NH2]; 60 minutes at 25°C; read-out: hSSTR5 Ki (nM) ± SEM
T5 construct: expressed in transfected cells; host or cells: CHO-K1 (ATCC), pcDNA3.1, G418-selected clonal line; membranes
T5 sequence (P35346 whole entry): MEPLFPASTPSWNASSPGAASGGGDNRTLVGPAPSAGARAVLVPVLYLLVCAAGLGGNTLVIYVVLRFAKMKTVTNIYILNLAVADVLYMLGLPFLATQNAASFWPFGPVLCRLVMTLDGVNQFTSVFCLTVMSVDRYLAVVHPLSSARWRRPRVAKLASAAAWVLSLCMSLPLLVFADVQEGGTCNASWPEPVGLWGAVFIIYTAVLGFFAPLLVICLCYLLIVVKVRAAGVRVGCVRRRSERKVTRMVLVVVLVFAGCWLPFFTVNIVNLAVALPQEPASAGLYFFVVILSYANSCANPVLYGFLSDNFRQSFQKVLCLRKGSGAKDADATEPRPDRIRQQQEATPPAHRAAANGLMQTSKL
Experimental: as §5, §6, §7

hSSTR2 [2] = target: T2, hSSTR2; assay: Intracellular calcium mobilization assay (FLIPR Calcium 4), hSSTR2; assay type: cell-based; conditions: for improvement in %Emax over Reference Compound C: receptor not named;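 as to all read-outs here: agonist activity measured in cells expressing hSSTR2, seeded in 384-well plates, loaded with Calcium 4 dye, read-out as rise in intracellular calcium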
Experimental: (§8) The ability of select compounds according to the present invention to activate hSSTR2 and hDRD2 was determined by the intracellular calcium mobilization assay using FLIPR Calcium 4 assay kit (Molecular Devices).
(§9) Cells expressing hSSTR2 or hDRD2 were plated in 384-well microplates in tissue culture media and incubated for 16-24 hours at 37°C in a humidified atmosphere with 5% CO2. Medium was replaced by loading buffer containing Hank's buffered saline, 20 mM HEPES, 2.5 mM probenecid and Calcium 4 dye, and the plates were incubated at 37°C for 60 minutes.

hDRD2 [3] = target: T6, hDRD2 (Homo sapiens, UniProt P14416); assay: cell-based; parameters: host or cells: 'Cells expressing hDRD2'; conditions: for Emax: read-out: hDRD2 %Emax ± SEM
T6 sequence (P14416 whole entry): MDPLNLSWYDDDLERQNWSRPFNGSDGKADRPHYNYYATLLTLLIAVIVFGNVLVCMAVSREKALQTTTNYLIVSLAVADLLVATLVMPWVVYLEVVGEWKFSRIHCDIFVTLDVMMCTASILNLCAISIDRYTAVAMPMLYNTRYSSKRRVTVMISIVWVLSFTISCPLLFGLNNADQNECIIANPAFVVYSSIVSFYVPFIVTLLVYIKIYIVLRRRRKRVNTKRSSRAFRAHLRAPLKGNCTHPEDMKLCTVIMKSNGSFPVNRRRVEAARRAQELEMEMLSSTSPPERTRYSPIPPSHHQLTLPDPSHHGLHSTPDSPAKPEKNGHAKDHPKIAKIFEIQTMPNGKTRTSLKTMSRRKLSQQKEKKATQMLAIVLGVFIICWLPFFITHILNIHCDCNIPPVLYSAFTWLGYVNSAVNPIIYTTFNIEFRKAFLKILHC
Experimental: as §8, §9

hDRD2 [4] = target: T6, hDRD2; assay: biochemical; assay type: binding; parameters: expressed in transfected cells; host or cells: CHO-K1, pcDNA3.1/GS, zeocin-selected clonal line; membranes
[5] = CHO-K1 cell membranes, 0.05 nM [125I-Tyr11]-SRIF-14, 60 minutes at 25°C, read-out: hSSTR1 Ki (nM) ± SEM
[6] = CHO-K1 cell membranes, 0.05 nM [125I-Tyr]-seglitide, 60 minutes at 25°C, read-out: hSSTR2 Ki (nM) ± SEM
[7] = CHO-K1 cell membranes, […] [3H]-spiperone, 60 minutes at 25°C, read-out: hDRD2 Ki (nM) ± SEM
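For Emax in this document: agonist activity at human DRD2 in DRD2-expressing cells, read as intracellular calcium mobilization with a FLIPR Calcium 4 fluorescent dye.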

T1 sequence (P30872 whole entry): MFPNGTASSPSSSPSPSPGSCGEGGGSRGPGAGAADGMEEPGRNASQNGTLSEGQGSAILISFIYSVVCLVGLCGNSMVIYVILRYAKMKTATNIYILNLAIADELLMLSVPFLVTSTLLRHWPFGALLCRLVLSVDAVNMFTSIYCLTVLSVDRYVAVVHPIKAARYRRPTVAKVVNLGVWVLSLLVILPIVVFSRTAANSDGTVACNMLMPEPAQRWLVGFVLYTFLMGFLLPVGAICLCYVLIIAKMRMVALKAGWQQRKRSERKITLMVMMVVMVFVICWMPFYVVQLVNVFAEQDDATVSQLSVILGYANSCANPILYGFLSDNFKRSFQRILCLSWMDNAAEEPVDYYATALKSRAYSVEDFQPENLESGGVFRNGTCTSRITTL

Row | SMILES | Ki (hSSTR1; [5]) [nM] | Ki (hSSTR2 [1]; [6]) [nM] | Ki (hSSTR3) [nM] | Ki (hSSTR4) [nM] | Ki (hSSTR5) [nM] | improvement in %Emax over Reference Compound C (hSSTR2 [2]) | Emax (hDRD2 [3]) [%] | Ki (hDRD2 [4]; [7]) [nM] | Ki (hSSTR1) [nM] | Ki (hSSTR2 [1]) [nM] | Ki (hDRD2 [4]) [nM] | EC50 (hSSTR2 [2]) [nM] | EC50 (hDRD2 [3]) [nM]
1 | C[C@@H](O)[C@@H]1NC(=O)[C@H](CCCCN)NC(=O)[C@@H](Cc2c[nH]c3ccccc23)NC(=O)[C@H](Cc2ccncc2)NC(=O)[C@H](Cc2ccccc2)NC(=O)[C@H](CCCNC(=N)N)NC(=O)[C@H](NC[C@H](CCCCNC(=O)CSC[C@@H]2C[C@@H]3c4cccc5[nH]cc(c45)C[C@H]3N(C)C2)NC(=O)CSC[C@@H]2C[C@@H]3c4cccc5[nH]cc(c45)C[C@H]3N(C)C2)CCCCNC(=O)[C@H](Cc2ccc(O)cc2)NC1=O [Compound 8, Dop1-Lys(Dop1)-psi(CH2NH)-cyclo(DLys-Arg-Phe-4Pal-DTrp-Lys-Thr-Tyr)] | 106 ± 7.9 | 0.21 ± 0.08 | 7.5 ± 0.3 | 60.7 ± 15.7 | 1.49 ± 0.3 | statistically significant improvement in %Emax | 94.7 ± 0.8 | 113 ± 35 |  |  |  |  | 
2 | C[C@@H](O)[C@@H]1NC(=O)[C@H](CCCCN)NC(=O)[C@@H](Cc2c[nH]c3ccccc23)NC(=O)[C@H](Cc2ccncc2)NC(=O)[C@H](Cc2ccccc2)NC(=O)[C@H](CCCNC(=N)N)NC(=O)[C@H](NC[C@H](CCCCNC(=O)CSC[C@@H]2C[C@@H]3c4cccc5[nH]cc(c45)C[C@H]3N(C)C2)NC(=O)CSC[C@@H]2C[C@@H]3c4cccc5[nH]cc(c45)C[C@H]3N(C)C2)CCCCNC(=O)[C@H](Cc2ccccc2)NC1=O [Compound 9, Dop1-Lys(Dop1)-psi(CH2NH)-cyclo(DLys-Arg-Phe-4Pal-DTrp-Lys-Thr-Phe)] | 41.9 ± 21.1 | 0.13 ± 0.06 | 4 ± 0.5 | 24 ± 3.6 | 1.54 ± 0.3 | statistically significant improvement in %Emax | 92.8 ± 3.8 | 39.2 ± 8.3 |  |  |  |  | 
3 | CC(=O)N(CCC(=O)NC(CN[C@@H]1CCCCNC(=O)[C@H](Cc2ccc(F)cc2)NC(=O)[C@H]([C@@H](C)O)NC(=O)[C@H](CCCCN)NC(=O)[C@@H](Cc2c[nH]c3ccccc23)NC(=O)[C@H](Cc2ccccc2)NC(=O)[C@H](Cc2ccccc2)NC(=O)[C@H](CCCNC(=N)N)NC1=O)Cc1ccc(O)cc1)C[C@@H]1C[C@@H]2c3cccc4[nH]cc(c34)C[C@H]2N(C)C1 (single isomer, unassigned) [Compound 27, 3-[N-acetyl-N-(D-6-methyl-8β-ergolinylmethyl)]-aminopropionyl-Tyr-psi(CH2NH)-cyclo(DLys-Arg-Phe-Phe-DTrp-Lys-Thr-4FPhe)] |  |  | 0.9 ± 0.1 | 7.3 ± 1.3 | 0.53 ± 0.1 |  | 86.3 ± 8 |  | 24.4 ± 12 | 0.32 ± 0.04 | 277 ± 55.5 |  | 
4 | C[C@@H](O)[C@@H]1NC(=O)[C@H](CCCCN)NC(=O)[C@@H](Cc2c[nH]c3ccccc23)NC(=O)[C@H](Cc2ccccc2)NC(=O)[C@H](Cc2ccccc2)NC(=O)[C@H](CCCNC(=N)N)NC(=O)[C@H](NCC[S+]([O-])C[C@@H]2C[C@@H]3c4cccc5[nH]cc(c45)C[C@H]3N(C)C2)CCCCNC(=O)[C@H](Cc2ccc(F)cc2)NC1=O (stereo partly drawn) [Compound 14, Dop1(SO)-psi(CH2NH)-cyclo(DLys-Arg-Phe-Phe-DTrp-Lys-Thr-4FPhe)] |  |  |  |  | 0.36 |  | 103 ± 2.3 |  | 6 | 0.05 ± 0.01 | 76.5 ± 13.9 | 1.3 ± 0.1 | 8.7 ± 1.7
5 | C[C@@H](O)[C@@H]1NC(=O)[C@H](CCCCN)NC(=O)[C@@H](Cc2c[nH]c3ccccc23)NC(=O)[C@H](Cc2ccncc2)NC(=O)[C@H](Cc2ccccc2)NC(=O)[C@H](CCCNC(=N)N)NC(=O)[C@H](NCC[S@@+]([O-])C[C@@H]2C[C@@H]3c4cccc5[nH]cc(c45)C[C@H]3N(C)C2)CCCCNC(=O)[C@H](Cc2ccc(O)cc2)NC1=O [Compound 12, Dop1[(S)SO]-psi(CH2NH)-cyclo(DLys-Arg-Phe-4Pal-DTrp-Lys-Thr-Tyr)] |  |  |  |  | 0.74 ± 0.4 |  | 99.8 ± 6 |  | 98.9 ± 2.3 | 0.06 ± 0.01 | 255 ± 224 | 4.1 ± 1.4 | 76.3 ± 28.2
